Laboratory results reported in patent EP0598753B1, “MANGANESE COMPLEXES OF NITROGEN-CONTAINING MACROCYCLIC LIGANDS EFFECTIVE AS CATALYSTS FOR DISMUTATING SUPEROXIDE” (MONSANTO COMPANY, priority 1991, dated 1993).

Legend:
rat aortic rings = assay: Rat aortic ring assay
Method: The aortic rings were prepared using a Furchgott procedure (described in Furchgott, R.F., "Role of Endothelium in Response of Vascular Smooth Muscle", Circ. Res. 53: 557-573, 1983) with changes in tension recorded. In all preparations, initial tension (1.5 grams) was produced with 30 mM KCl.

[1] = molecular target: T1, nitric oxide synthase (NOS) (Mus musculus, UniProt P29477); assay: NOS activity measured by citrulline production; type: biochemical
T1 construct: crude NOS (prepared from endotoxin-treated RAW 264.7 cells); endogenous in cells; host or cells: endotoxin-treated RAW 264.7 cells (crude enzyme preparation)
T1 sequence (P29477 1-1144): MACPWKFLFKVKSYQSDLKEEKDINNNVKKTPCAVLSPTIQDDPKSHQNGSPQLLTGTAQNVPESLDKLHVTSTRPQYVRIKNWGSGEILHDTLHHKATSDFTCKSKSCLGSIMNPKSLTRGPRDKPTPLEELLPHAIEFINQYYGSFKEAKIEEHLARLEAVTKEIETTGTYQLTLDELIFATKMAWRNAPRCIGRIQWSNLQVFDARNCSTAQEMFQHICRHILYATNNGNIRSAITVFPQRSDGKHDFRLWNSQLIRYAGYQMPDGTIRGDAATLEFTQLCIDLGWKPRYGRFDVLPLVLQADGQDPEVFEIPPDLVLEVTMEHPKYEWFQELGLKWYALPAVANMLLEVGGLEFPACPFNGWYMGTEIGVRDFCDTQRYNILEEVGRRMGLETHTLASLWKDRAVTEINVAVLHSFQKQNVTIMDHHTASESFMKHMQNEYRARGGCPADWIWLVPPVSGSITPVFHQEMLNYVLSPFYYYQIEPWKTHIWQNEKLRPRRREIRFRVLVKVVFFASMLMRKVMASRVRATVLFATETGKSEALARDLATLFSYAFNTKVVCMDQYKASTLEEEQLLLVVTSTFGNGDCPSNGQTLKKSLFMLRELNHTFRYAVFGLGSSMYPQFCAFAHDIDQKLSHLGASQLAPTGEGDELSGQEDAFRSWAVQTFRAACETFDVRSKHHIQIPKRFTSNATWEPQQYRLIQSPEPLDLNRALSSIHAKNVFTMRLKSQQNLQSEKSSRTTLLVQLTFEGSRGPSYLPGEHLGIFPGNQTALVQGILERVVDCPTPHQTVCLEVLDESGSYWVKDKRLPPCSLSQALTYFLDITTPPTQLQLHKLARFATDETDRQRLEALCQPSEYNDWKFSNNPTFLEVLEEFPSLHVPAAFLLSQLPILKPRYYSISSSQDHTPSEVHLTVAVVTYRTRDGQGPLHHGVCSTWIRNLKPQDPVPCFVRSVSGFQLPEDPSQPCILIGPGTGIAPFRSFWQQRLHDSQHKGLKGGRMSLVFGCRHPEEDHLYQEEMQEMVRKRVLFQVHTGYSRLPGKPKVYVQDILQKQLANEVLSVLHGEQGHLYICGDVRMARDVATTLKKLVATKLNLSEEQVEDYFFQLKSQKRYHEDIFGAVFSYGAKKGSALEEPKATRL

[2] = tested on: rat lung fibroblast cells; assay: Nitric oxide: rat lung fibroblast cGMP reporter assay; type: cell-based; settings: for cGMP: mean
Method: The assay is described in Ishii, I., Sheng, H., Warner, T.D., Förstermann, V. and Murad, F., Am. J. Physiol., 261 (Heart Circ. Physiol. 30); H598-H603, 1991 modified in that the nitric oxide synthase (NOS) is added directly to the cells. Rat lung fibroblast cells were grown to confluence on a 48-well tissue culture plate containing Earle's salts medium. The medium is removed and the cells washed twice with minimal essential medium buffered with Earle's salts. A nitric oxide (NO) generating system consisting of enzyme (NOS), nicotinamide adenine dinucleotide phosphate (NADPH), arginine and required cofactors, such as tetrahydrobiopterin and flavin adenine dinucleotide (FAD) is subsequently added to each well. In cases where the complex of Example 1 was added, addition occurred with the NO generating system. After five minutes of incubation, each reaction is terminated, cellular cGMP extracted and measured by radioimmunoassay.
The capacity of the rat lung fibroblast cells to respond to NO was confirmed by adding sodium nitroprusside (SNP), a compound which spontaneously degrades to NO and results in increased cGMP levels. Next, crude NOS (prepared from endotoxin-treated RAW 264.7 cells) was added to the rat lung fibroblast cells to determine their response to enzymatically generated NO. A dose-dependent increase in cGMP with increasing amounts of enzyme was obtained. Superoxide dismutase (SOD) addition augmented cellular cGMP levels.

[3] = tested on: human aortic endothelial cells (HAE cells)
Source text: (§1) Human peripheral blood neutrophils were isolated from fresh venous blood of healthy volunteers. EDTA anticoagulated blood was separated using a single step density centrifugation (Polymorphprep; Nycomed Pharma, Oslo, Norway) followed by several washes in Hank's balanced salt solution supplemented with 0.5% BSA (Bovine Serum Albumin) (HBSSB) and the hypertonic lysis of erythrocytes. Neutrophils were counted via Coulter electronic particle counter and resuspended in HBSSB supplemented with 25% Endothelial Basal Medium (EBM), (Clonetics Corporation, San Diego, CA) at a concentration of 5 x 10^6 polymorphonuclear leukocytes (PMN)/ml.
(§2) The cytotoxic effects of stimulated neutrophils on endothelial cells were determined using a ^51Cr-release assay as previously described (Moldow, C.F., and Jacob, H.S. (1984) Methods Enzymol. 105, 378-385). Confluent monolayers of human aortic endothelial cells (HAE cells; Clonetics) grown in 96-well culture plates were prelabeled with 1 µCi/well ^51Cr (Na2 ^51Cr2O4, New England Nuclear, Boston, MA). The cells were incubated for 18 h at 37°C, then cytokine-activated with 10 Units/well human recombinant tumor necrosis factor-a (hrTNF-α; Monsanto Company, St. Louis, MO) for 4 h at 37°C. The cells were washed twice to remove unincorporated radioactivity with Hank's balanced salt solution supplemented with 0.5% BSA. To assess inhibition of PMN-mediated cytotoxicity, manganese(II) complexes at various doses (0-300 µM) were added to five replicate wells/dose of HAE cells immediately prior to the addition of PMN. Suspensions of PMN in HBSSB supplemented with 25% Endothelial Basal Medium were added to the wells at a neutrophil to endothelial cell ratio of 50:1. The PMN were allowed to adhere for 15 minutes at 37°C, primed with 125 Units/well hrTNF-α (Berkow, R.L., Wang, D., Larrick, J.W., Dodson, R.W., and Howard, T.H. (1987) J. Immunol. 139, 3783-3791; Varani, J.; Bendelow, M. J. Sealey, D. E.; Kunkel, S. L.; Gannon, D. E.; Ryan, U.S.; and Ward, P.A. (1987) Lab. Invest., 59, 292-295) for 10 minutes, and stimulated with human recombinant complement component C5a (Sigma Chemical, St. Louis, MO). […] After an additional incubation of 4 hours at 37°C, 200 µl of the 250 µl reaction volume (soluble fraction) was removed to a tube for counting. The cells were washed twice with 200 µl HBSSB (nonadherent fraction) and the washes pooled with the soluble fraction. The adherent fraction was collected by lysing the HAE cells with 200 µl 1N NaOH for 30 minutes and removing to separate tubes. Both fractions were analyzed by gamma scintillation spectrometry. The percentage cytotoxicity was calculated by the following formula: % Cytotoxicity =(cpm (soluble + nonadherent fractions))/(cpm (soluble + nonadherent + adherent fractions))x 100 [formula] Specific cytotoxicity reflects the difference between ^51Cr-release induced by stimulated PMN and unstimulated PMN. The IC50 values for the manganese(II) complexes for protection against neutrophil-mediated cytotoxicity were determined from a computer-driven logistic regression equation from a plot of % specific cytotoxicity versus the concentration of the manganese(II) complex.

conscious rats = assay: Rat hemodynamic model (mean blood pressure, conscious rats); type: in vivo, male Sprague-Dawley rats
Method: Catheters were inserted into the femoral vein, femoral artery and bladder of male Sprague-Dawley rats (250-325 grams total body weight) anesthetized with ether. The rats were then placed in individual restraining cages and allowed to regain consciousness. Blood pressure was measured by a standard pressure transducer and physiograph. Increasing doses of the manganese(II) complex of Example 1 (prepared in an aqueous solution) were given as single bolus injections. The results of the tests can be found in Figure 1. The blood pressure values represent the mean arterial blood pressure from the mean values of 3 rats. […] Thus, the potentiation by the complex of Example 1 of the vasorelaxant effects of NO is consistent with the proposed mechanism of action as an SOD mimic.

[4] = tested on: human aortic endothelial cells (HAE cells); assay: Neutrophil-mediated cytotoxicity assay (51Cr-release); settings: 50% inhibition of specific cytotoxicity; human neutrophil-mediated killing of human aortic endothelial cells
Source text: as §1, §2

[5] = tested on: colonic myeloperoxidase activity; assay: Mouse acetic acid-induced colitis model (colonic myeloperoxidase); type: in vivo; settings: 30 mg/kg dose, intracolonic, 30 minutes before acetic acid, tissue after 24 hours
Method: Mouse colitis model. […] Mice were lightly anesthetized. A solution of 3% (v/v) aqueous acetic acid was instilled intracolonically via a flexible polyethylene tube. After 24 hours, the animals were killed and colonic tissue samples were obtained. Tissue samples were assessed biochemically for the neutrophil marker enzyme, myeloperoxidase (MPO). The colonic tissue samples were minced, homogenized in detergent, and sonicated. After centrifugation, enzyme activities were assayed spectrophotometrically by determining the decomposition of peroxide using o-dianisidine as the hydrogen donor. Data was obtained as the absorbance (460 nm) at 20 minutes. Test agents were given intracolonically at a dose of 30 mg/kg body weight 30 minutes before acetic acid instillation as a sonicated suspension in 0.5% aqueous methyl cellulose. Vehicle was given to appropriate acetic acid control animals. Normal tissue was obtained from control animals which received only vehicle. Colonic myeloperoxidase activities were determined as units/g wet weight of tissue. Reduction of colonic myeloperoxidase activity by test agents in acetic acid-treated mice is expressed as % inhibition (Table 2). Colonic myeloperoxidase activity correlated with the degree of tissue inflammation as assessed by visual and histological analysis.

For `C1CNCCNCCNCCNCCN1.[Cl-].[Cl-].[Mn+2]` [Example 1, [Manganese(II)dichloro(1,4,7,10,13-Pentaazacyclopentadecane)]], the “effect on the relaxation response to acetylcholine, in words” value (rat aortic rings; complex 0.5 and 5.0 micromolar, acetylcholine 0.1 and 1.0 micromolar) was “additive effect”, the “effect on the relaxation response to sodium nitroprusside, in words” value (rat aortic rings; complex 0.5 and 5.0 micromolar, sodium nitroprusside 0.001 to 10 micromolar) was “additive effect” and the maximum relaxation (rat aortic rings; endothelium and dose-dependent from 0.05 to 300 micromolar, 30 mM KCl) was 45%. The “augmentation of cellular cGMP levels” value (rat aortic rings; rat aortic rings, 5 micromolar for 1 min.) was 2.5 fold, the “NOS activity as measured by citrulline production” value [1] was “does not increase NOS activity” and the cGMP ([2]; NOS + complex 0.0001mM) was 19.3 fmol/well/10. It also gave a cGMP ([2]; NOS + complex 0.001mM) of 21.7 fmol/well/10, a cGMP ([2]; NOS + complex 0.01mM) of 43.7 fmol/well/10 and a cGMP ([2]; NOS + complex 0.10mM) of 54.7 fmol/well/10. For the same molecule, the cGMP ([2]; NOS + complex 1.0mM) was 60.3 fmol/well/10, the cGMP ([2]; complex alone, 1mM, no NOS) was 11.7 fmol/well/10 and the “basal levels of cGMP, in words” value ([2]; complex alone, 1 millimolar) was “not increased”. For the same molecule, the “cGMP levels, in words” value ([2]; with NO generating system, 1 micromolar to 1 millimolar) was “dose-dependent increase in cGMP levels”, the “protection against human neutrophil-mediated cytotoxicity, in words” value [3] was “protective against human neutrophil-mediated cytotoxicity” and the “effect on mean blood pressure, in words” value (conscious rats; increasing doses as single bolus injections, aqueous solution, data in Figure 1) was “blood pressure drop”. For the same molecule, the “duration of the blood pressure drop” value (conscious rats; single bolus injections) was 3 to 5 min, the IC50 [4] was 25 µM and the “% Inhibition of Colonic Myeloperoxidase Activity” value [5] was 69%.
